In patent US20260198495A1, “BINARY INSECTICIDE COMPOSITION AND USE THEREOF” (SHENYANG SINOCHEM AGROCHEMICALS R & D CO., LTD., priority 2022, published 2026):

Columns and labels:
Assay type in all cases: in vivo
[1] = tested on: 3rd-instar larvae of Plutella xylostella; assay: Joint toxicity of I-72 + metaflumizone, airbrush spraying, Example 4, Table 4; conditions: Plutella xylostella, foliar, airbrush spraying of cabbage leaf disks, 72 h, A = compound I-72, B = metaflumizone, read-out: LC50
Experimental: Test target: 3rd-instar larvae of Plutella xylostella, a sensitive strain reared indoors.
(§1) Test conditions: temperature: 25-27° C., humidity: RH 60%, and illumination: L:D=14:10
Experimental method: the airbrush spraying method was adopted. The cabbage cultivated in the greenhouse was taken and made into leaf disks with a diameter of 3 cm. After uniform spraying treatment with an airbrush manual sprayer, the leaf disks were placed in a 9-cm Petri dish lined with filter paper. After natural air-drying in the shade, the standard test insects were introduced, and the number of dead and live insects was investigated 72 h later.
The preparation of the pesticide solution and the evaluation method (Sun Y-P) for the joint action type of the mixture were the same as those in Example 1.

[2] = tested on: adult Bemisia tabaci (Gennadius); assay: Joint toxicity of I-72 + emamectin benzoate, seedling spraying, Example 12, Table 12; conditions: Bemisia tabaci; adults, kidney bean seedling spraying, 72 h; A = compound I-72, B = emamectin benzoate; read-out: LC50
From the text: Test subject: adult Bemisia tabaci (Gennadius), a sensitive strain reared indoors.
Experimental method: the spraying method was adopted. The kidney bean seedlings cultivated in the greenhouse were selected and evenly sprayed with the pesticide solution in the order from low dosage to high dosage according to the experimental design. After natural air-drying in the shade, a self-made glass cover was put on, and the test insects were introduced, with 20-30 insects for each treatment and 3 replicates. In addition, a blank control was set up. The number of dead and live insects was investigated 72 hours later. The corrected mortality rate was calculated using the Abbott's formula, and the DPS data processing software was used for statistical analysis to calculate the toxicities (LC50 values) of the single test pesticides and the mixtures under the test ratios.
The test conditions, the preparation of the pesticide solution and the evaluation method were the same as those in Example 1.

[3] = tested on: adult Tetranychus cinnabarinus (Boisduval); assay: Joint toxicity of I-72 + pyridaben, Example 84, Table 84; conditions: A = compound I72, B = pyridaben, potted-seedling spraying, 72 hours, read-out: LC50
Experimental: Test target: adult Tetranychus cinnabarinus (Boisduval), a sensitive strain reared indoors.
Preparation of the pesticide solution: according to different test requirements, the test samples were accurately weighed respectively with an electronic analytical balance. The technical pesticides were dissolved in acetone, and then diluted with 0.1% Tween 80 water into a series of pesticide solutions with a certain concentration gradient according to the experimental design dosage.
Experimental method: the activity of the mixture against the adult Tetranychus cinnabarinus (Boisduval) was determined by adopting the potted-seedling spraying method. First, the adult Tetranychus cinnabarinus of uniform size were transferred onto the leaves of kidney bean seedlings at the stage when the first pair of true leaves was fully expanded. After the adult mites had stabilized, the base number was counted. Then, the uniform spraying was performed with the pesticide solution in the order from low to high dose according to the experimental design, with 1.5 mL for each seedling and 3 replicates for each treatment. […]
The treated test materials were placed in an observation room, and the temperature, humidity and illumination of the observation room could be adjusted as needed. […] Then, the co-toxicity coefficient of each ratio was calculated using the Sun Y-P method to evaluate the mixing effect, as in Example 1.

[4] = tested on: 2nd-instar larvae of Chilo suppressalis (Walker); assay: Joint toxicity of I-72 + abamectin, rice stalk spraying, Example 7, Table 7; conditions: Chilo suppressalis, resistant 2nd-instar larvae, 72 h, A = compound I-72, B = abamectin, read-out: LC50
Experimental: Test target: 2nd-instar larvae of Chilo suppressalis (Walker). The insect source was collected from Nanchang, Jiangxi Province, and it is the 11th generation continuously cultured indoors, with a relatively high resistance level to amide pesticides such as chlorantraniliprole.
as §1
Preparation method: the test pesticides were accurately weighed respectively with an electronic analytical balance. After the two technical materials were respectively added into an appropriate amount of solvent and completely dissolved, the stock solution of the required concentration was prepared with water containing 0.1% Tween 80. The stock solutions of the two active ingredients were mixed in a certain ratio to prepare a mixed solution, which was then diluted respectively into a series of pesticide solutions with a certain concentration gradient according to the experimental design dosage.
Experimental method: the spraying method was adopted. […] The corrected mortality rate was calculated using the Abbott's formula, and the DPS data processing software was used for statistical analysis to calculate the toxicities (LC50 values) of the single test pesticides and the mixtures under the test ratios. […]

[5] = tested on: Cnaphalocrocis medinalis; assay: Field efficacy trial of I-72 and Bacillus thuringiensis on rice, Example 86, Table 86; conditions: 20 days after application
Experimental: This trial was arranged in the suburban area of Jurong City, Jiangsu Province. The conventional spraying method was adopted in the trial. The investigation method was to take samples at 5 points, and a total of 25 clusters of rice were investigated. The investigation was performed 20 days after the pesticide application. By comparing with the leaf rolling rate in the control plot, the relative control efficacy was calculated. The amount of water used per mu was 45 L.
The test pesticides were as follows: A: 8000 IU/μL Bacillus thuringiensis suspension (produced by Qingdao Audis Biotechnology Co., Ltd. of Shandong), and B: compound I-72 (dissolved in acetone, 0.1% Tween 80 was added, and a 10% stock solution was prepared for use).
[formula] [formula] • in the formula, CK is the leaf rolling rate in the blank control plot after the pesticide application

CN(C(=O)c1ccc2c(c1)OC(F)(F)O2)c1cccc(C(=O)Nc2c(Br)cc(C(F)(C(F)(F)F)C(F)(F)F)cc2OC(F)F)c1F [Compound I-72]
LC50 [1]: 0.0867 µg/mL
LC50 [2]: 2.97 µg/mL
LC50 [3]: 33.5 µg/mL
LC50 [4]: 0.811 µg/mL
Control efficacy ([5]; dose 9 ml per mu): 79.6%
Leaf rolling rate ([5]; dose 9 ml per mu): 8.6%
Control efficacy ([5]; dose 11.25 ml per mu): 85.0%
Leaf rolling rate ([5]; dose 11.25 ml per mu): 6.3%
Control efficacy ([5]; dose 13.5 ml per mu): 86.8%
Leaf rolling rate ([5]; dose 13.5 ml per mu): 5.6%
